# From article PMC9984387, “The dynamic nature of netrin-1 and the structural basis for glycosaminoglycan fragment-induced filament formation” (Nature Communications, 2023)
# Target: NET1ΔC (Gallus gallus, UniProt Q90922)
# Test: X-ray crystal structure (native crystals soaked in SOS)
# Format: binding
# Conditions: 10 mM SOS soak 5-7 days; crystals from PEG 8000, CHES pH 9.5; one SOS per monomer, two sites SOSab and SOScd in LE-2 subdomain
smiles,measurement,value
"O=S(=O)(O)OC[C@H]1O[C@@](COS(=O)(=O)O)(O[C@H]2O[C@H](COS(=O)(=O)O)[C@@H](OS(=O)(=O)O)[C@H](OS(=O)(=O)O)[C@H]2OS(=O)(=O)O)[C@@H](OS(=O)(=O)O)[C@@H]1OS(=O)(=O)O [SOS, sucrose-octasulfate]",X-ray crystal structure (native crystals soaked in SOS),in complex with one sucrose-octasulfate molecule bound per monomer
